In Sander's compilation of Henry's law constants (doi:10.1016/s0021-9673(98)00877-2):

test: Henry solubility constant Hcp at 298.15 K (mol/(m3 Pa)); conditions: reference: Dewulf et al. (1999)

**Q.** For `Fc1ccccc1` [fluorobenzene], which “Henry solubility constant Hcp” value is on record?
**A.** The value was 0.0014.

**Q.** With `Clc1ccccc1` [chlorobenzene] as the compound, how does the “Henry solubility constant Hcp” value read?
**A.** The value was 0.0025.

**Q.** For `ClCC(Cl)Cl` [1,1,2-trichloroethane], which “Henry solubility constant Hcp” value is on record?
**A.** Its value is 0.011.

**Q.** With `C1CCCCC1` [cyclohexane] as the compound, how does the “Henry solubility constant Hcp” value read?
**A.** The value was 5.2e-05.

**Q.** With `ClC=C(Cl)Cl` [trichloroethene] as the compound, how does the “Henry solubility constant Hcp” value read?
**A.** The value was 0.00095.

**Q.** For `Cc1ccccc1` [methylbenzene], which “Henry solubility constant Hcp” value is on record?
**A.** Its value is 0.0015.

**Q.** With `Clc1cccc(Cl)c1Cl` [1,2,3-trichlorobenzene] as the compound, how does the “Henry solubility constant Hcp” value read?
**A.** The value was 0.0036.

**Q.** With `Clc1cc(Cl)cc(Cl)c1` [1,3,5-trichlorobenzene] as the compound, how does the “Henry solubility constant Hcp” value read?
**A.** Its value is 0.0018.

**Q.** For `c1ccc2ccccc2c1` [naphthalene], which “Henry solubility constant Hcp” value is on record?
**A.** The value was 0.013.

**Q.** Which “Henry solubility constant Hcp” value does the source give for `CC(Cl)CCl` (centres undefined) [1,2-dichloropropane] here?
**A.** Its value is 0.0035.

**Q.** For `COc1ccccc1` [methoxybenzene], which “Henry solubility constant Hcp” value is on record?
**A.** The value was 0.026.

**Q.** For `O=[N+]([O-])c1ccccc1` [nitrobenzene], which “Henry solubility constant Hcp” value is on record?
**A.** Its value is 0.023.

**Q.** Which “Henry solubility constant Hcp” value does the source give for `ClC(Cl)=C(Cl)C(Cl)=C(Cl)Cl` [hexachlorobutadiene] here?
**A.** Its value is 0.00062.

**Q.** With `C=C(Cl)Cl` [1,1-dichloroethene] as the compound, how does the “Henry solubility constant Hcp” value read?
**A.** The value was 0.00037.
